# Data: PubChem BioAssay AID504777 (National Center for Advancing Translational Sciences (NCATS), 2011)
# Tested on: mouse liver microsomes without NADPH, LC-MS/MS
# Assay: Enhancers of SMN2 Splice Variant Expression: Metabolic Stability in absence of NADPH Profiling
# Conditions: at 1 µM; stronger effect = higher value
# Description: Spinal muscular atrophy (SMA) is caused by insufficient levels of the survival motor neuron protein SMN. The SMN locus on chromosome 5q13 contains two inverted copies of SMN called SMN1 and SMN2 which are 99% identical at the amino acid level. SMN1 is a fully functional protein and SMN2 skips exon 7 90% of the time. Skipping of exon 7 produces non-functional protein product. 10% of the SMN2 protein includes exon 7 and is fully functional. In the SMA disease state, mutations in the SMN1 locus are the cause of the disease state. Because only 10% of SMN2 is of the fully functional form, it is not sufficient to overcome the deficiency produced by the loss of the SMN1 product. A therapy that either increase the amount of SMN2 product made or to increase the inclusion of exon 7 has been proposed for the treatment of SMA. Mouse liver microsomes are generated from lysed mouse liver. Liver microsomes contain many drug metabolizing enzymes, including Cytochome P-450s and flavin-containing monooxygenases. Because drug metabolism is major way of drug clearance, this is an important result. NIH Chemical Genomics Center [NCGC] NIH Molecular Libraries Probe Production centers Network [MLPCN] MLPCN Grant: R03 MH084179-01 Assay Submitter (PI): Elliot Androphy
# 1uM of compound in incubated in mouse liver microsome; the reference compound is ketanserin. […] Samples are analyzed with LC-MS/MS.
smiles,measurement,value
O=C(O)C1CCN(c2nc(-c3ccc(Br)cc3)cs2)CC1,percent remaining,95%
